Laboratory results as given in patent US8299065B2, “Antibacterial condensed thiazoles” (Biota Europe Ltd., priority 2007, dated 2012).
Values after ≈ are worked out from the molar mass of the structure shown. Values belong to the molecule of their own block, whether it stands above or below them.

Experiments:
[1] = tested on: Enterococcus faecalis ATCC 29212; assay: MIC testing against Enterococcus faecalis ATCC 29212; type: cell-based; details: ATCC29212, read-out: MICs against Enterococcus faecalis, Activity
Method: (§1) Minimum Inhibitory Concentration (MIC) Testing Compounds of this invention were tested for antimicrobial activity by susceptibility testing in liquid or on solid media. MICs for compounds against each strain were determined by the broth microdilution or agar dilution method according to the guidelines of the Clinical Laboratories and Standards Institute, formerly the National Committee for Clinical Laboratory Standards (Clinical Laboratories and Standards Institute. Methods for Dilution Antimicrobial Susceptibility Tests for Bacteria That Grow Aerobically; Approved Standard—Seventh Edition. Document M7-A7. CLSI, Wayne, Pa., 2006; Clinical Laboratories and Standards Institute. Methods for Antimicrobial Susceptibility Testing of Anaerobic Bacteria; Approved Standard—Sixth Edition. Document M11-A6. CLSI, Wayne, Pa., 2004).

[2] = tested on: Enterococcus faecalis (VRE) ATCC 51299; assay: MIC testing, various bacteria; type: cell-based
Method: (§2) Minimum Inhibitory Concentration (MIC) Testing
as §1, with “Compounds” for “Minimum Inhibitory Concentration (MIC) Testing Compounds”
(§3) Some of the Example compounds were also tested for activity against other bacterial species.

[3] = tested on: Enterococcus faecium (VRE) ATCC 700221; assay: MIC testing, various bacteria; type: cell-based
Method: as §2
as §1, with “Compounds” for “Minimum Inhibitory Concentration (MIC) Testing Compounds”
as §3

[4] = tested on: Staphylococcus aureus ATCC 29213; assay: MIC testing, various bacteria; type: cell-based; details: ATCC29213
Method: as §2
as §1, with “Compounds” for “Minimum Inhibitory Concentration (MIC) Testing Compounds”
as §3

[5] = tested on: Streptococcus mutans ATCC 35668; assay: MIC testing, various bacteria; type: cell-based; details: ATCC35668
Method: as §2
as §1, with “Compounds” for “Minimum Inhibitory Concentration (MIC) Testing Compounds”
as §3

[6] = tested on: Staphylococcus haemolyticus ATCC 29970; assay: MIC testing, various bacteria; type: cell-based; details: ATCC29970
Method: as §2
as §1, with “Compounds” for “Minimum Inhibitory Concentration (MIC) Testing Compounds”
as §3

[7] = tested on: Streptococcus pyogenes ATCC 51339; assay: MIC testing, various bacteria; type: cell-based; details: ATCC51339
Method: as §2
as §1, with “Compounds” for “Minimum Inhibitory Concentration (MIC) Testing Compounds”
as §3

[8] = tested on: Haemophilus influenzae ATCC 49247; assay: MIC testing, various bacteria; type: cell-based; details: ATCC49247
Method: as §2
as §1, with “Compounds” for “Minimum Inhibitory Concentration (MIC) Testing Compounds”
as §3

[9] = tested on: Staphylococcus epidermidis ATCC 12228; assay: MIC testing, various bacteria; type: cell-based; details: ATCC12228
Method: as §2
as §1, with “Compounds” for “Minimum Inhibitory Concentration (MIC) Testing Compounds”
as §3

[10] = tested on: Streptococcus agalactiae ATCC 13813; assay: MIC testing, various bacteria; type: cell-based; details: ATCC13813
Method: as §2
as §1, with “Compounds” for “Minimum Inhibitory Concentration (MIC) Testing Compounds”
as §3

[11] = tested on: Moraxella catarrhalis ATCC 25240; assay: MIC testing, various bacteria; type: cell-based; details: ATCC25240
Method: as §2
as §1, with “Compounds” for “Minimum Inhibitory Concentration (MIC) Testing Compounds”
as §3

[12] = tested on: Streptococcus pneumoniae ATCC 49619; assay: MIC testing, various bacteria; type: cell-based; details: ATCC49619
Method: as §2
as §1, with “Compounds” for “Minimum Inhibitory Concentration (MIC) Testing Compounds”
as §3

[13] = tested on: Enterococcus faecium clinical isolates; assay: MIC testing, clinical isolates; type: cell-based; details: 10 clinical isolates
Method: as §1, with “2004). Some of the Example compounds were also tested for activity against clinical isolates of various bacterial species.” for “2004).”

[14] = tested on: Staphylococcus epidermidis clinical isolates; assay: MIC testing, clinical isolates; type: cell-based; details: 10 clinical isolates
Method: as §1, with “2004). Some of the Example compounds were also tested for activity against clinical isolates of various bacterial species.” for “2004).”

[15] = tested on: Propionibacterium acnes clinical isolates; assay: MIC testing, clinical isolates; type: cell-based; details: 5 clinical isolates
Method: as §1, with “2004). Some of the Example compounds were also tested for activity against clinical isolates of various bacterial species.” for “2004).”

[16] = tested on: Streptococcus pneumoniae clinical isolates; assay: MIC testing, clinical isolates; type: cell-based; details: 10 clinical isolates
Method: as §1, with “2004). Some of the Example compounds were also tested for activity against clinical isolates of various bacterial species.” for “2004).”

[17] = tested on: Enterococcus faecalis clinical isolates; assay: MIC testing, clinical isolates; type: cell-based; details: 10 clinical isolates
Method: as §1, with “2004). Some of the Example compounds were also tested for activity against clinical isolates of various bacterial species.” for “2004).”

[18] = tested on: Streptococcus pyogenes clinical isolates; assay: MIC testing, clinical isolates; type: cell-based; details: 10 clinical isolates
Method: as §1, with “2004). Some of the Example compounds were also tested for activity against clinical isolates of various bacterial species.” for “2004).”

[19] = tested on: Staphylococus aureus clinical isolates; assay: MIC testing, clinical isolates; type: cell-based; details: 10 clinical isolates
Method: as §1, with “2004). Some of the Example compounds were also tested for activity against clinical isolates of various bacterial species.” for “2004).”

MIC [1]: 0.25 to 1 µg/mL (≈ 0.761 to 3.05 µM)
MIC [2]: 2 to 16 µg/mL (≈ 6.09 to 48.7 µM)
MIC [3]: 2 to 16 µg/mL (≈ 6.09 to 48.7 µM)
MIC [4]: 0.25 to 1 µg/mL (≈ 0.761 to 3.05 µM)
MIC [5]: 0.25 to 1 µg/mL (≈ 0.761 to 3.05 µM)
MIC [7]: 0.25 to 1 µg/mL (≈ 0.761 to 3.05 µM)
MIC [8]: 2 to 16 µg/mL (≈ 6.09 to 48.7 µM)
MIC [9]: 0.25 to 1 µg/mL (≈ 0.761 to 3.05 µM)
MIC [10]: 0.25 to 1 µg/mL (≈ 0.761 to 3.05 µM)
MIC [11]: 0.25 to 1 µg/mL (≈ 0.761 to 3.05 µM)
MIC [12]: < 0.25 µg/mL
Compound: CCNC(=O)Nc1nc2cc(-c3ccn(C)c(=O)c3)ccc2s1 [Example 3, 1-Ethyl-3-(5-(1-methyl-2-oxo-1,2-dihydro-pyridin-4-yl)-benzothiazol-2-yl)urea]
MIC [6]: 0.25 to 1 µg/mL (≈ 0.761 to 3.05 µM)

melting point: 199.1 °C
MIC [1]: 0.25 to 1 µg/mL (≈ 0.79 to 3.16 µM)
Compound: CCNC(=O)Nc1nc2cc(-c3cccnc3)c(F)cc2s1 [Example 4, 1-Ethyl-3-(6-fluoro-5-pyridin-3-yl-benzothiazol-2-yl)-urea]

MIC90 [13]: 0.5 µg/mL (≈ 1.14 µM)
MIC range [13]: 0.25 to 0.5 µg/mL
MIC90 [14]: 0.03 µg/mL (≈ 0.0686 µM)
MIC range [14]: 0.008 to 0.06 µg/mL
MIC range [15]: 1 µg/mL (≈ 2.29 µM)
MIC90 ([15]; Cutibacterium acnes): 1 µg/mL (≈ 2.29 µM)
MIC90 [16]: 0.015 µg/mL (≈ 0.0343 µM)
MIC range [16]: 0.008 to 0.03 µg/mL
MIC90 [17]: 0.25 µg/mL (≈ 0.571 µM)
MIC range [17]: 0.06 to 0.5 µg/mL
MIC90 [18]: 0.25 µg/mL (≈ 0.571 µM)
MIC range [18]: 0.12 to 0.5 µg/mL
MIC90 [19]: 0.06 µg/mL (≈ 0.137 µM)
MIC range [19]: 0.03 to 0.12 µg/mL
MIC [1]: 0.25 to 1 µg/mL (≈ 0.571 to 2.29 µM)
Compound: CCNC(=O)Nc1nc2cc(-c3cc(C)n(Cc4cccnc4)c(=O)c3)c(F)cc2s1 [Example 49, 1-ethyl-3-(6-fluoro-5-(6-methyl-2-oxo-1-(pyridin-3-ylmethyl)-1,2-dihydropyridin-4-yl)benzo[d]thiazol-2-yl)urea]
